Legend:
[1] = system: HIV-1Ba-L infected primary human astrocytes (HA); test: p24 antigen ELISA in HIV-infected primary human astrocytes (latency breaking and antiviral efficacy); type: cell-based; settings: tested about 1 to about 10 μM, solution phase
Description: FIG. 11 represents an evaluation of the antiviral efficacy of an exemplary embodiment of the drug delivery system in suppressing p24 antigen levels in HIV-infected human astrocytes. The drug delivery system was added on the second day after HIV infection (HIV-1BaL) in equimolar concentration. Supernatants were evaluated on the third, fifth, and seventh day postinfection for p24 levels and were checked for its efficacy, along with its percentage cell viability, using MTT assay. […] Viral p24 protein in the culture supernatant was measured by enzyme-linked immunosorbent assay. Error bars indicate the standard deviation of triplicate data points and are representative of at least three experiments. Dotted lines represent the percentage cell viability; each point represents treatment period. […] NS=non-significant. MTT=3-(4,5-dimethylthiazol-2-yl)-2,5-diphenyltetrazolium bromide.
Latency-breaking and antiviral efficacy of the formulation was determined via quantification of p24 antigen in a primary human astrocytes (HA) infection model (Nair, M. et al., Nat Commun. 2013; 4:1707). […] The sustained-release ability of the finally assembled formulation ([MNP+tenofovir]2+vorinostat) was also evaluated over a treatment period of 5 days in the HA model. […]

human astrocytes (HAs) = system: human astrocytes (HAs)
Description: In vitro cytotoxicity was assessed by MTT cell viability assay, using a CellTiter 96 Aqueous one-solution cell proliferation assay kit (catalog G3580; Promega, USA) (Nair, M. et al., Nat Commun. 2013; 4:1707). HAs were seeded in 96-well tissue plates at a density of 5×10^3 cells per well. […] Finally, approximately 100 μL stop solution (about 20% sodium dodecyl sulfate in about 50% dimethyl formamide) was added into each well, and absorbance was recorded at 550 nm by a microplate reader (Synergy HT; BioTek Instruments, Inc.).

O=C(CCCCCCC(=O)Nc1ccccc1)NO [vorinostat]
vorinostat concentration giving maximum p24 value (latency reversal) [1]: 1 µM
cytotoxicity of optimized vorinostat dose (human astrocytes (HAs)): nontoxic
